Assay [1] has as its system astrocytes transfected with scramble siRNA. In words: Lactate secretion, scramble siRNA astrocytes. In kind it is cell-based, mouse. The following applies: vs vehicle. As for the experimental part:
Secretion of L-lactate was measured in the extracellular medium of 96-well plated astrocytes after 90 min stimulation (at 37° C., in 5% CO2/95% air conditions) with Vehicle (DMSO), the compounds of the invention (100 nM to 100 μM) or positive control. […] Stimulation medium was composed of D5030 medium complemented with 5 mM D-glucose and 44 mM sodium bicarbonate, pH 7.2. To quantify lactate concentrations in the extracellular medium, 200 μl of a 0.2M Glycine-semicarbazide buffer (pH 10) containing 3 mM NAD and 14 U/ml LDH was added to each well of a 96-well plate containing 30 μl aliquots of extracellular medium. Samples were incubated at 37° C. for 1 h. Fluorescence intensity (340 nm excitation/450 nm emission), which represents the amount of NADH produced, was measured, and lactate concentration values were determined relative to a standard curve of L-lactate concentrations.
Scramble and GLUT1 siRNA sequences were as following:
Cells were grown in transfection medium for 3 days at 37° C. in a humidified atmosphere containing 5% CO2/95% air. After 3 days, transfection medium was replaced with DMEM D5030 supplemented with 44 mM NaHCO3 and 5 mM D-Glucose (1 ml per well).
Lactate secretion after treatment with Veh or compound of the invention (1) was measured in astrocytes transfected with scramble siRNA or GLUT1 siRNA (FIG. 4B).

Assay [2] has as its system GLUT1-DS mice. In words: Cerebral extracellular lactate and glucose biosensors, GLUT1-DS transgenic mice. In kind it is in vivo, mouse. The following applies: medial prefrontal cortex, 10 mg/kg and/or 100 mg/kg oral, AUC ratio vs vehicle. The source says:
(§1) Transgenic mice on 129/SvJ genetic background in which GLUT1 has been knocked-down (GLUT1-DS mice) were used (Wang et al., […], Human Molecular Genetics, 15(7)). Mating colonies were composed of wild-type female mice and GLUT1-DS male mice, or GLUT1-DS female mice and wild-type male mice. F1 pups were genotyped after ear punching at weaning using PCR to determine genotype. Mice of 2 to 3 months of age were used.
Cerebral extracellular levels of lactate and glucose were monitored in vivo in GLUT1-DS transgenic male mice and wild-type (WT) male littermates using lactate and glucose biosensors (Pinnacle Technology), according to the manufacturer's instructions. […] After surgery, mice were monitored closely and received analgesic treatment for at least 4 days. After mice had fully recovered from surgery, compounds of the invention of vehicle were administered per os as previously described and cerebral levels of extracellular lactate or glucose were dynamically recorded for 6 hours using lactate or glucose biosensors, respectively. […] Concentration of cerebral extracellular lactate or glucose was calculated from lactate or glucose probe electric signals, respectively, using post-calibration values, as described by manufacturer. […]

The test system of assay [3] is GLUT1-DS mice. In words: Rotarod motor function in GLUT1-DS transgenic mice. In kind it is in vivo, mouse. The following applies: 10 mg/kg oral daily for 19 days. How it is done:
as §1
Motor function was measured in wild-type (WT) and GLUT1-DS transgenic mice in the rotarod after 19-day long treatment with Veh. or Compound (1). Mice were administered every day orally vehicle or Compound (1) at a dose of 10 mg/kg. After 14 days of treatment, mice were exposed to rotarod training, which consisted in placing the mouse on an accelerating rotarod (4 to 40 r.p.m.) during 300 seconds. Mice that felt down before training ended, or at the end of training (300 seconds), were removed and put back to their cages. Training took place over 4 consecutive days, and on each training day mice performed 3 consecutive trials with 15 min inter-trial duration. One day after the last training (on the fifth day), mice were tested on the rotarod. Testing consisted in placing mice on the rotarod at a constant speed of 25 r.p.m. Latencies of mice before falling down were recorded.
(The rotarod test checks motor coordination on a turning rod.)

The next assay deals with primary astrocytes. In words: MTT mitochondrial activity assay. In kind it is cell-based. The following applies: Mus musculus, Astrocyte, 24 h treatment. How it is done: Primary cultures of cerebrocortical astrocytes were obtained from 1 to 2-day-old OF1 mouse pups (Charles River). Briefly, cortices were isolated and minced in small pieces under a dissecting microscope. The cells were incubated for 30 min at 37° C. in a solution containing 20 U/ml papain, 1 mM L-cysteine and 10 kU/ml DNase I. After dissociation, papain activity was stopped by the addition of fetal calf serum (FCS). Single-cell suspension was then obtained by mechanical dissociation, which consisted in cells trituration in a DMEM D7777 medium supplemented with 44 mm NaHCO3, 10 ml/L antibiotic/antimycotic solution and 10% FCS. The cells were seeded at an average density of ˜10′000 cells/cm^2 on poly-D-lysine coated 96- or 12-well culture plates, depending on their use, and grown in DMEM D7777 medium supplemented with 44 mm NaHCO3, 10 ml/L antibiotic/antimycotic solution and 10% FCS at 37° C. in a humidified atmosphere containing 5% CO2/95% air. Culture medium was renewed twice a week. Cells were stimulated and harvested between DIV14 and DIV17, when confluence and cell growth were optimal.
To monitor mitochondrial activity in astrocytes, which is linked to the metabolic process of glycolysis and production of lactate, astrocytes in 96-well plates were stimulated for 24 h (37° C. 5% CO2/95% air) with the compounds of the invention ranging from 0.2 to 200 μM.
After stimulation, 5 mg/ml thiazol blue tetrazolium bromide (MTT) in D5030 medium complemented with 5 mM D-glucose and 44 mM sodium bicarbonate (pH 7.2) was added to each well, and cells were incubated for 4 h at 37° C. (5% CO2). The medium was then removed and the amount of reduced MTT, i.e. formazan, solubilized in DMSO (50 μl/well) was determined using a spectrophotometer (absorbance of 570 nm).
The mitochondrial activity in primary astrocytes treated with Compounds (1) to (4) at concentrations ranging from 1 nM to 200 μM. After 24 h, mitochondrial activity was monitored in MTT colorimetric assay as described above (FIG. 3).

pIC50: −log10 of the molar value.

For the compound `COc1cc2ccnc(Nc3ccc(OC(F)(F)F)cc3)c2cc1OC` [Example 1, 6,7-dimethoxy-N-(4-(trifluoromethoxy)phenyl)isoquinolin-1-amine], the Lactate secretion result in assay [1] is “significantly enhances lactate secretion”. In addition, in the assay with GLUT1-DS mice [2], the “Extracellular glucose levels in the brain” value is on record as “significantly increases” and the “Extracellular lactate levels in the brain” value is “significantly increases”. Moreover, the “Rotarod performance (latency before falling, 25 r.p.m.)” value in the assay on GLUT1-DS mice [3] is on record as “increased rotarod performance”. The pIC50 (in general, the IC50 on a negative log10 scale, so that one unit is a factor of ten) in the assay on primary astrocytes is 4.46.

The values are drawn from patent publication US11925632B2, “Isoquinoline derivatives for use in treating GLUT1 deficiency syndrome” (GLIAPHARM SA, priority 2019, dated 2024).
